This data set concerns rat glutathione S-transferase Ya subunit promoter. The data set is described as follows: CAT reporter activity induction in HepG2 cells carrying the rat GST Ya promoter/CAT construct. Type of data set: cell-based. As to conditions: HepG2 cells infected with pdelE1sp1B-1.6CAT, a-NF 50 mM. From the text: DNA coding for a promoter/reporter rat glutathione S-transferase Ya subunit 1.6 kb promoter sequence positioned upstream of the chloramphenicol acetyltransferase reporter gene was cloned into the adenovirus shuttle vector pdelE1sp1B, whereby the E1B genome of the adenovirus is deleted and replaced. Successful construction of the shuttle vector, pdelE1sp1B-1.6CAT was verified by both restriction mapping and by sequencing across the 5′- and 3′-ends of the cloning sites. In addition, the shuttle vector was tested functionally in HepG2 cells for regulation of expression of CAT by a-napthoflavone ([…]).
HepG2 cells were seeded in 12- or 24-well plates at a density of 60-70% confluence. Cells were infected the following day with Ad1.6CAT (9.7×10^8 pfu/ml) at an MOI of 5 for 1 h. At the end of the infection period the virus was removed, the cells were rinsed once with PBS, and fresh media was placed on the cells. […]
HepG2 cells were harvested at various time points following induction of CAT expression. […] CAT activity determined by the method of Gorman et al. using 10 ug of protein for 60 minute at 37° C. Acetylated products of chloramphenicol were extracted with mixed xylenes and quantitated by liquid scintillation counting. Results were expressed as fold induction versus control.

This is an account of results in patent US6395473B1, “Adenoviral based promoter assay” (Merck & Co., Inc., priority 1998, dated 2002).

Regarding `O=c1cc(-c2ccccc2)oc2c1ccc1ccccc12` [a-NF, a-napthoflavone], the “Induction of CAT activity (fold induction versus control)” value reads like this: (after 24 hours) “approximately 45 fold”; (after 48 hours) “approximately 85 fold”.
